Data: patent publication US7332279B2 (Glycozym APS, priority 1999, dated 2008)

Assays:
[1] = target: T1, β3Gal-T5 (Homo sapiens, UniProt Q9Y2C3, M85T); test: Activity of full coding construct of β3Gal-T5 expressed in Sf9 cells (Triton CF54 homogenates or media); assay type: biochemical; settings: 60 hrs post-infection, acceptor 20 mM
T1 construct: Full length enzymes were assayed with 1% Triton CF54 homogenates of washed cells; made in house; host or cells: Sf9 cells, baculovirus (pVL1193)
T1 sequence (Q9Y2C3 1-310 M85T): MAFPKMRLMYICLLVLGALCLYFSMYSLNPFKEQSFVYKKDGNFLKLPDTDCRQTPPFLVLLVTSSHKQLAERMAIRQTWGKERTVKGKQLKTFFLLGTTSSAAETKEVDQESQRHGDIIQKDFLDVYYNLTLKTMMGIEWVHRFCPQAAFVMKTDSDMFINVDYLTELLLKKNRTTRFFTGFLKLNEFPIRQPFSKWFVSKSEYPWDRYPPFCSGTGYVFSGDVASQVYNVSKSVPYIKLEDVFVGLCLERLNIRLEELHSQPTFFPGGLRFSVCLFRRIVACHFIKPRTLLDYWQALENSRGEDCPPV
From the text: PCR product was cloned into the BamHI site of pAcGP67B (Pharmingen). […] This PCR product was cloned into the BamHI site of pVL1193 (Pharmingen). Both soluble and full length constructs were fully sequenced to confirm fidelity. Plasmids […]5-full were co-transfected with Baculo-GoldTM DNA (Pharmingen) as described previously (Bennett, […]. and Clausen, H. cDNA cloning and expression of a novel human UDP-N-acetyl-alpha-D-galactosamine. Polypeptide N-acetyl-galactosaminyl-transferase, GalNAc-T3. J. Biol. Chem. 271:17006-17012, 1996). Recombinant Baculo-virus were obtained after two successive amplifications in Sf9 cells grown in serum-containing medium, and titers of virus were estimated by titration in 24-well plates with monitoring of enzyme activities. […] J. Biol. […] J. Biol. […] Polypeptide N-acetyl-galactosaminyl-transferase, GalNAc-T3. J. Biol. Chem. 271:17006-17012, 1996). For large scale expression amplified virus was used to infect High FiveTM cells grown in serum-free media (Invitrogen) in upright roller bottles shaking at 140 rpm and 27° C. The kinetic properties were determined with partially purified, secreted forms of the enzymes. […] Reaction products were quantified by Dowex-1 chromatography. […] The transfer of Gal was evaluated after acid precipitation by filtration through Whatman GF/C glass fibre filters. […]

[2] = test system: porcine tracheal β3Gal-transferase activity; settings: acceptor substrate; read-out: apparent Km, porcine β3Gal-transferase activity; cited from earlier work

Row | β3Gal-T5 full coding construct activity, Cells ([1]; 1% Triton CF54 cell homogenate) | β3Gal-T5 full coding construct activity, Media ([1]; media) | Compound | Km [2]
1 | 1.5 nmol/min/mL | 0.1 nmol/min/mL | CC(=O)N[C@H]1[C@H](OCc2ccccc2)O[C@H](CO)[C@@H](O)[C@@H]1O [β-D-GlcNAc-Bzl] | –
2 | – | – | CC(=O)NC1C(OC2C(O)C(CO)OC(Oc3ccc([N+](=O)[O-])cc3)C2NC(C)=O)OC(CO)C(O)C1O [β-D-GlcNAc-(1–3)-α-D-GalNAc-p-Nph] | 2400 µM
